The subject of test [1] is E. coli. The test can be described thus: Fluorescence response to an electric field in a mixed culture in the presence of vancomycin (FIG. 6). The test is classed as cell-based, Escherichia coli. The following applies: E. coli cells in mixed culture with B. subtilis in the presence of vancomycin; trace 602 of FIG. 6. The text has this:
(§1) In an experimental setup, bacterial cells were inoculated on agarose pads and placed on the electrode surface, enabling monitoring of cells at single-cell resolution by microscopy. The membrane potential dynamics of cells was monitored using the fluorescent Nernstian indicator dye, Thioflavin T (ThT), which has been used extensively with bacteria.
When a series of electrical pulses (±1.5 V AC 0.1 kHz for 2.5 seconds) were applied to E. coli (K12 strain) cells placed in the electrode gaps, the pulses caused hyperpolarization (seen by an increase of ThT fluorescence signal) in vital cells. FIG. 3 illustrates the effect of applying an electric field across a sample 304 as viewed between a pair of opposing electrodes 301, 302 in an apparatus of the type illustrated in FIG. 1. […] An electric field was then applied, and the image shown represents the difference in fluorescence over a period of time after the application of the electric field. […] This provides a clear indication that the change in fluorescence is an indication of the vitality of cells within the sample.
(§2) In the mixed culture. […] The presence of E. coli or other coliforms could therefore be confirmed through fluorescence analysis of a sample treated with a selective antibiotic such as vancomycin.

Test [2] deals with B. subtilis. The description is as above. It is filed as cell-based, Bacillus subtilis. The following applies: vancomycin treated B. subtilis cells in mixed culture with E. coli; trace 601 of FIG. 6.
Description: as §1
The sample (shown in FIG. 3) was subjected to alternating 3V pulses at a frequency of 100 Hz for 2.5 seconds. The mean response 501 of ten UV-treated cells is shown in FIG. 5 alongside the mean response 502 of ten non-UV-treated cells.
as §2

Each structure is given as a SMILES string.

For `CN[C@H](CC(C)C)C(=O)N[C@H]1C(=O)N[C@@H](CC(N)=O)C(=O)N[C@H]2C(=O)N[C@H]3C(=O)N[C@H](C(=O)N[C@H](C(=O)O)c4cc(O)cc(O)c4-c4cc3ccc4O)[C@H](O)c3ccc(c(Cl)c3)Oc3cc2cc(c3O[C@@H]2O[C@H](CO)[C@@H](O)[C@H](O)[C@H]2O[C@H]2C[C@](C)(N)[C@H](O)[C@H](C)O2)Oc2ccc(cc2Cl)[C@H]1O` [vancomycin], the “log of a fluorescent response (membrane potential change)” value in test [1] is “hyperpolarized”; in test [2], “depolarization”.
